Holding throughout (assay type): in vivo
Common to all, as to conditions: oral, every day

Data set [1] relates to GIST-T1-T670I mouse tumor model. In words: Tumor-grafted mouse model established with GIST-T1-T670I cells. How it is done:
(§1) In this example Compound 1 and Compound 2 were respectively tested in TEL-cKIT/T670I-BaF3, TEL-cKIT/Y823D-BaF3, TEL-cKIT/D820G-BaF3 and GIST-T1-T670I mouse models.
(§2) Experimental protocols were as follows. • (1) Bal b/c female mice aged 4-6 weeks were purchased from Beijing Weitong Lihua Laboratory Animal Co., Ltd., and the mice were raised in an SPF laboratory. The drinking water and padding were sterilized by autoclaving. All operations on mice were conducted under aseptic conditions. • (2) About 5×10^6 TEL-cKIT/T670I-BaF3, TEL-cKIT/Y823D-BaF3, TEL-cKIT/D820G-BaF3 or GIST-T1-T670I cells were respectively injected subcutaneously onto the left back of all mice on Day 0. • (3) From Day 6, for the TEL-cKIT/T670I-BaF3 mouse model the corresponding mice were administrated orally every day with methylcellulose (HKI) as the vehicle (5 mice); with Compound 1 and Compound 2 at a dosage of 10 mg/kg, 20 mg/kg, 40 mg/kg, 100 mg/kg mouse weight (5 mice in each group); and with Sunitnib (purchased from MedChemExpress, China) at a dosage of 40 mg/kg mouse weight (5 mice). From day 6, for the TEL-cKIT/Y823D-BaF3 and TEL-cKIT/D820G-BaF3 mouse models the corresponding mice were administrated orally every day with methylcellulose (HKI) as the vehicle (5 mice); with Compound 1 and Compound 2 at a dosage of 40 mg/kg, 80 mg/kg mouse weight (5 mice in each group); and with Sunitnib (purchased from MedChemExpress, China) at a dosage of 40 mg/kg mouse weight (5 mice). From day 15, for the GIST-T1-T670I mouse model the corresponding mice were administrated orally every day with methylcellulose (HKI) as the vehicle (5 mice); with Compound 1 and Compound 2 at a dosage of 20 mg/kg, 40 mg/kg, 80 mg/kg mouse weight (5 mice in each group); and with Sunitnib at a dosage of 40 mg/kg mouse weight (5 mice). • (4) From day 6 (TEL-cKIT/T670I-BaF3, TEL-cKIT/Y823D-BaF3, TEL-cKIT/D820G-BaF3 mouse model) and From day 15 (GIST-T1-T670I mouse model), respectively, the length/width of the subcutaneous tumor were measured with a vernier caliper every day and the body weight of the mouse was recorded every day so as to determine the effects of Compound 1 and Compound 2 on the body weight and tumor size of the mice, respectively. • (5) The mice were sacrificed on Day 11 after administration for the TEL-cKIT/T670I-BaF3 mouse model, on Day 9 after administration for the TEL-cKIT/Y823D-BaF3 and TEL-cKIT/D820G-BaF3 mouse models, and on Day 28 after administration for the GIST-T1-T670I mouse model. The subcutaneous tumors were taken out, and the tumors were weighed and compared. • (6) The growth trend of subcutaneous tumors was calculated and the tumor size was calculated according to: length×width×width/2 mm^3.

Data set [2] relates to TEL-cKIT/D820G-BaF3 mouse tumor model. The data set is described as follows: Tumor-grafted mouse model established with TEL-cKIT/D820G-BaF3 cells. How it is done:
as §1, §2

Data set [3] relates to TEL-cKIT/Y823D-BaF3 mouse tumor model. The data set is described as follows: Tumor-grafted mouse model established with TEL-cKIT/Y823D-BaF3 cells. How it is done: as §1, §2

Bounds are passed on as bounds.

In the case of `COc1cc2nccc(Oc3ccc(NC(=O)Cc4ccc(C)c(C(F)(F)F)c4)cc3)c2cc1OC` [Example 1, N-(4-((6,7-dimethoxyquinolin-4-yl)oxy)phenyl)-2-(4-methyl-3-(trifluoromethyl)phenyl)acetamide], the “inhibitory effects against tumor in mice” value in data set [1] (40 mg/kg), in data set [2] (40 mg/kg) and in data set [3] (40 mg/kg) was “excellent inhibitory effects against tumor in mice” each time. For the same compound, the “influence on mice weight” value in data set [1], in data set [2] and in data set [3] was “without significant influence on mice weight” throughout.

In the case of `COc1cc2nccc(Oc3ccc(NC(=O)Cc4ccc(Cl)c(C(F)(F)F)c4)cc3)c2cc1OC` [Example 2, N-(4-((6,7-dimethoxyquinolin-4-yl)oxy)phenyl)-2-(4-chloro-3-(trifluoromethyl)phenyl)-acetamide], the “inhibitory effects against tumor in mice” value in data set [1] (40 mg/kg), in data set [2] (40 mg/kg) and in data set [3] (40 mg/kg) was “excellent inhibitory effects against tumor in mice” throughout. In addition, the tumor inhibition rate in data set [1] (40 mg/kg), in data set [2] (40 mg/kg) and in data set [3] (40 mg/kg) was not below 80% throughout. Moreover, the “influence on mice weight” value in data set [1], in data set [2] and in data set [3] was “without significant influence on mice weight” in each case.
